Structures are written as SMILES.

Common to all, as to format: cell-based
In one test the test system is C8166 ATL cell line. Briefly: PDT using 5-ALA, cell survival rate by Cell Counting Kit-8, C8166. The settings on record: for EC50: Homo sapiens, C8166, light or radiation study, 4 h, C8166, 5-ALA loaded 4 hours. An excerpt: (§1) ATN-1, C8166, TL-Om1, Hut102, and MT-1 were used as ATL cell lines. Among them, lenalidomide-sensitive cell line was Hut102 and lenalidomide-resistant cell line was C8166. The sensitivity of ATN-1, TL-Om1, and MT-1 to lenalidomide was unknown. Meanwhile, tretinoin-sensitive cell line was C8166 and tretinoin-resistant cell line was Hut102. The sensitivity of ATN-1, TL-Om1, and MT-1 to tretinoin was unknown. In addition, mogamulizumab-sensitive cell lines were ATN-1, TL-Om1, and MT-1, and mogamulizumab-resistant cell line was Hut102. The sensitivity of C8166 to mogamulizumab was unknown. These cells were passaged and cultured. For the experiment, cells were prepared to a density of 1×10^6 cells/ml at the beginning of the experiment.
(§2) To the cell suspension, 5-ALA was added at concentrations of 0, 0.0625, 0.125, 0.25, and 0.5 mM and loaded for 4 hours. The cell after 5-ALA loading was washed and irradiated with light (0, 10, 30, and 100 J/cm^2) at a central wavelength of 630 nm, and cell survival rate (%) was calculated by Cell Counting Kit-8.
A general note: Formazan colour is commonly taken as a measure of viable cells.

For the next test, the system named is Hut102 ATL cell line. Briefly: PDT using 5-ALA, cell survival rate by Cell Counting Kit-8, Hut102. The conditions noted are these: for EC50: HuT-102, light or radiation study, 4 h, Hut102, 5-ALA loaded 4 hours.
Excerpt: as §1, §2

In another test the test system is ATN-1 ATL cell line. The experiment in a line: PDT using 5-ALA, cell survival rate by Cell Counting Kit-8, ATN-1. The settings on record: Homo sapiens, ATN-1, light or radiation study, 4 h, 5-ALA loaded 4 hours.
Excerpt: as §1, §2

A further test deals with TL-Om1 ATL cell line. Briefly: PDT using 5-ALA, cell survival rate by Cell Counting Kit-8, TL-Om1. The settings on record: light or radiation study, 4 h, 5-ALA loaded 4 hours.
Excerpt: as §1, §2

A further test concerns MT-1 ATL cell line. Briefly: PDT using 5-ALA, cell survival rate by Cell Counting Kit-8, MT-1. The conditions noted are these: light or radiation study, 4 h, 5-ALA loaded 4 hours.
Excerpt: as §1, §2

The subject of test [1] is LAMA84-r imatinib-resistant CML cell line. Briefly: PDT using 5-ALA, cell survival rate by Cell Counting Kit-8, LAMA84-r. The procedure: (§3) LAMA84-r was used as imatinib-resistant CML cell line and the original cell line LAMA84-s (imatinib-sensitive) was used as a comparative control. In addition, K562/ADR was used as doxorubicin-resistant CML cell line and the original cell line K562 (doxorubicin-sensitive) was used as a comparative control. These cells were passaged and cultured. For the experiment, cells were prepared to a density of 1×10^6 cells/ml at the beginning of the experiment.
as §2

Test [2] has as its system K562/ADR doxorubicin-resistant CML cell line. The experiment in a line: PDT using 5-ALA, cell survival rate by Cell Counting Kit-8, K562/ADR. The protocol:
as §3, §2

Take `NCC(=O)CCC(=O)O` [5-ALA, 5-aminolevulinic acid]: the “cell killing by PDT using 5-ALA” value is “killed” in the test on C8166 ATL cell line (C8166, lenalidomide-resistant cell line, FIG. 1); “killed” in the test on Hut102 ATL cell line (HuT102, mogamulizumab-resistant and tretinoin-resistant cell line, FIG. 1); “killed” in test [1] (LAMA84-r, imatinib-resistant cell line, FIG. 2); “killed” in test [2] (K562/ADR, doxorubicin-resistant cell line, FIG. 2). The EC50 with C8166 ATL cell line (10 J/cm^2 at 630 nm) is 113 µM; in the test on C8166 ATL cell line (30 J/cm^2 at 630 nm) it was 87 µM; in the test with C8166 ATL cell line (100 J/cm^2 at 630 nm) it was 77 µM; with Hut102 ATL cell line (10 J/cm^2 at 630 nm), 441 µM; in the test on Hut102 ATL cell line (30 J/cm^2 at 630 nm), 277 µM; in the test with Hut102 ATL cell line (100 J/cm^2 at 630 nm), 173 µM. In addition, the concentration giving a half-maximal response (EC50) in the test on ATN-1 ATL cell line (10 J/cm^2 at 630 nm) came to 113 µM; in the test with ATN-1 ATL cell line (30 J/cm^2 at 630 nm), 87 µM; in the test on ATN-1 ATL cell line (100 J/cm^2 at 630 nm) it was 84 µM; with TL-Om1 ATL cell line (10 J/cm^2 at 630 nm) it was 269 µM; with TL-Om1 ATL cell line (30 J/cm^2 at 630 nm), 141 µM; with TL-Om1 ATL cell line (100 J/cm^2 at 630 nm) it was 92 µM. The figures for the EC50 with MT-1 ATL cell line (10 J/cm^2 at 630 nm), in the test with MT-1 ATL cell line (30 J/cm^2 at 630 nm) and in the test with MT-1 ATL cell line (100 J/cm^2 at 630 nm) were over 500 µM, 202 µM and 115 µM, respectively. Moreover, the “cell killing effect of PDT using 5-ALA relative to sensitive cell line” value (with C8166 ATL cell line (lenalidomide-resistant C8166 versus lenalidomide-sensitive Hut102); in the test on C8166 ATL cell line (tretinoin-resistant cell line C8166 versus tretinoin-sensitive cell line Hut102 (so in the source)); in test [1] (imatinib-resistant LAMA84-r versus LAMA84-s); in test [2] (doxorubicin-resistant K562/ADR versus K562)) was “comparable” in each case. For the same compound, the “cell killing effect of PDT using 5-ALA relative to sensitive cell lines” value with Hut102 ATL cell line (mogamulizumab-resistant Hut102 versus the other sensitive cell lines (ATN-1, TL-Om1, MT-1)) is “at least comparable”.

One may read the EC50 as the concentration needed to bring the measured effect to its halfway point. A low value points to a more potent agent.
